Consider five molecules from article PMC12596218 (Journal of Lipid Research, 2025).

Values joined by “and” are separate entries in the source; they are usually repeats but may differ in a detail not shown here. Equal values may be shown once. Read-outs that look alike come from different tables or passages of the source.

One series addresses T1, OATP2B1 (Homo sapiens, UniProt O94956).
T1 construct: stably transfected with the full open reading frames of human NTCP, ASBT, SOAT, OATP1B1, OATP1B3, OATP2B1, and murine Asbt (mAsbt); expressed in transfected cells; host or cells: HEK293, stably transfected (OATP2B1-HEK), tetracycline-induced
T1 sequence (O94956 1-709): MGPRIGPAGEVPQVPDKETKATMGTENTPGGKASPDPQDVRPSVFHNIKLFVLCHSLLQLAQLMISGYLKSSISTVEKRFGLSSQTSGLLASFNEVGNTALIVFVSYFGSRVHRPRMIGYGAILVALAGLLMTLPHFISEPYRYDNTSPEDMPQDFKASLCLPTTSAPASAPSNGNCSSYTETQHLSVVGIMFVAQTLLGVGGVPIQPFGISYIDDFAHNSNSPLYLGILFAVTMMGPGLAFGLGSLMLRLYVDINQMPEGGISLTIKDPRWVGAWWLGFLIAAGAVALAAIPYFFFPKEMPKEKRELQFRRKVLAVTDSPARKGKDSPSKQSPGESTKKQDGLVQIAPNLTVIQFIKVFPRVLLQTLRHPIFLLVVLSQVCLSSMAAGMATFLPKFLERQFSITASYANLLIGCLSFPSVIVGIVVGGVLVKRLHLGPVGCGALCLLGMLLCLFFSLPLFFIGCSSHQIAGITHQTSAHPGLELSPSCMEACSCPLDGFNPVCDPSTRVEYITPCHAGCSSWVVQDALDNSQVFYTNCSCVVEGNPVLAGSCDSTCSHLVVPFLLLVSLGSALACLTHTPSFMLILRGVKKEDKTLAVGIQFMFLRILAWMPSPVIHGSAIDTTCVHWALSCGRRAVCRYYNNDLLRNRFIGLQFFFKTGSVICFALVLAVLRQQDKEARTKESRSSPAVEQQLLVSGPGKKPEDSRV
The series is described as follows: [3H]E1S transport inhibition assay in OATP2B1-HEK293 cells. The class given is cell-based. Particulars: 200 nM [3H]E1S, 10 min; two independent experiments. The text has this: Human embryonic kidney HEK293 cells, stably transfected with the full open reading frames of human NTCP, ASBT, SOAT, OATP1B1, OATP1B3, OATP2B1, and murine Asbt (mAsbt) were used as reported ([18], [20], [21], [22], [23]). The NTCP, ASBT, and mAsbt constructs were C-terminally tagged with the FLAG epitope, and the SOAT construct was C-terminally tagged with green fluorescent protein. Non-transfected Flp-In HEK293 cells (Thermo Fisher Scientific) served as the control. All cell lines were maintained at 37°C, 5% CO2 and 95% humidity in DMEM/F-12 medium (Thermo Fisher Scientific) supplemented with 10% fetal calf serum (Sigma-Aldrich), 4 mM L-glutamine (PAA) and penicillin/streptomycin (PAA). Expression of the respective carrier protein was induced by tetracycline treatment at 1 μg/ml (Carl Roth GmbH + Co. KG).
Cells were seeded onto poly-L-lysine-coated 96-well plates, induced with 1 μg/ml tetracycline, and grown to confluence over 72 h at 37°C. Then, cells were washed with tempered (37°C) phosphate-buffered saline (PBS, containing 137.0 mM NaCl, 2.7 mM KCl, 1.5 mM KH2PO4, and 7.3 mM Na2HPO4, at pH 7.4) and preincubated with 80 μl sodium transport buffer (STB, containing 142.9 mM NaCl, 4.7 mM KCl, 1.2 mM MgSO4, 1.2 mM KH2PO4, 1.8 mM CaCl2, and 20.0 mM HEPES, at pH 7.4) for 5 min at 37°C. For inhibition studies, the medium was replaced by 80 μl STB containing the respective inhibitor or solvent alone and cells were further incubated for 5 min at 37°C. Transport experiments were started by adding 20 μl of a 5-fold concentrated substrate solution (solved in STB). For transport experiments under sodium-free conditions the same buffer composition was used as for STB, but sodium chloride was substituted with equimolar concentrations of choline chloride as previously reported ([20], [24]). Transport experiments were stopped by washing twice with ice-cold PBS and the plates were kept cool on ice until adding the lysis buffer [1% sodium dodecyl sulfate (SDS) and 1 N NaOH]. Then, the cell-associated radioactivity of the respective tritium-labeled substrate or ligand was quantified by liquid scintillation counting using MicroScint-20 scintillation cocktail (Revvity) in a Packard Microplate Scintillation Counter TopCount NXT (Packard Instrument Company). For IC50 transport inhibition measurements, the mean uptake values measured in non-carrier-expressing HEK293 control cells were defined as 0% uptake control and were subtracted from all other values. Values from cells without inhibitor and solvent alone were set to 100%. Finally, all net transport data were expressed as uptake or binding as % of control. All transport or inhibition graphs were generated with GraphPad Prism 6 (GraphPad). Determination of half maximal inhibitory concentrations (IC50) was done by nonlinear regression analysis using the equation log (inhibitor) versus response—variable slope settings. All data points of the IC50 curves represent means ± SD of quadruplicate determinations. For Km measurements, BS uptake in the absence of sodium was regarded as carrier-independent unspecific uptake and was subtracted from the transport rates in the presence of sodium to obtain carrier-specific uptake rates (indicated as dashed lines). From the specific uptake rates, Michaelis Menten Km values were calculated by non-linear regression analysis.

For series [1] the following is noted: cited from earlier work.
The subject of another series is ASBT. Particulars: cited from earlier work; for IC50: read-out: IC50 ASBT inhibition.

What is called IC50 is the midpoint of a concentration-inhibition curve. As for `CCCCC1(CCCC)CS(=O)(=O)c2ccc(N(C)C)cc2[C@@H](c2ccc(OCCCC[N+]34CCN(CC3)CC4)cc2)[C@H]1O` [SC-435], the IC50 against OATP2B1 was > 10 µM and 40.3 µM and 36.5 µM.
As for `CCCCC1(CCCC)CN(c2ccccc2)c2cc(SC)c(OCC(=O)N[C@@H](C(=O)NCC(=O)O)c3ccccc3)cc2S(=O)(=O)C1` [elobixibat], the “Cmax, clinical drug concentration” value in series [1] (15 mg cohort study, ref PMDA Goofice report) is “Elobixibat clinical drug concentration in the 15 mg cohort study: Cmax = 0.39 ng/ml”. The IC50 in the series with ASBT (ref PMDA Goofice Report on the Deliberation Results) is 0.00053 µM; against OATP2B1, 3.9 µM and 3.6 µM. The “IC50 ratio for ASBT versus NTCP inhibition” value in the series on ASBT (reported by the PMDA, ref PMDA) is 0.0022.
`CCCC[C@]1(CC)CS(=O)(=O)c2cc(CNC(CC(=O)O)CC(=O)O)c(OC)cc2[C@@H](c2ccccc2)N1` [linerixibat]: the IC50 against OATP2B1 was > 10 µM and 26.1 µM and 22.5 µM.
For `CCCCC1(CCCC)CS(=O)(=O)c2ccc(N(C)C)cc2[C@@H](c2ccc(OCc3ccc(C[N+]45CCN(CC4)CC5)cc3)cc2)[C@H]1O` [maralixibat], the “Cmax, clinical drug concentration” value was 1.62 ng/mL in series [1] (45 mg cohort study, fasted, ref EMA Livmarli assessment report variation) and 0.57 ng/mL in series [1] (45 mg cohort study, fed, ref EMA Livmarli assessment report variation). Moreover, the IC50 with ASBT (ASBT expressed in baby hamster kidney H-14 cell line, ref FDA NDA 214662 Livmarli) is 0.00028 µM; against OATP2B1, 7.5 µM and 6 µM.
As to `CCCCC1(CCCC)CN(c2ccccc2)c2cc(SC)c(OCC(=O)N[C@@H](C(=O)N[C@@H](CC)C(=O)O)c3ccc(O)cc3)cc2S(=O)(=O)N1` [odevixibat], in series [1] (120 μg/kg/day cohort study, ref FDA (URL EMA Bylvay product information)), the “Cmax, clinical drug concentration” value is listed as “Odevixibat clinical drug concentration in the 120 μg/kg/day cohort study: Cmax = 0.62 ng/ml”. Besides, the IC50 in the series on ASBT (ASBT-expressing HEK293 cells, ref EMA EPAR Risk management plan for odevixibat) was 0.00013 µM; against OATP2B1, 5.1 µM and 4 µM.
